The results in this text go back to patent publication US9428536B2, “Immunostimulatory G, U-containing oligoribonucleotides” (Zoetis Belgium SA, priority 2002, dated 2016).

What all share (type): cell-based
The target in one series is T1, human TLR7 (Homo sapiens, UniProt Q9NYK1).
T1 construct: All full-length TLR fragments were cloned into pGEM-T Easy vector; expressed in transfected cells; host or cells: 293 HEK cells (ATCC), transient electroporation with pcDNA3.1(-) TLR expression plasmid
T1 sequence (Q9NYK1 27-1049): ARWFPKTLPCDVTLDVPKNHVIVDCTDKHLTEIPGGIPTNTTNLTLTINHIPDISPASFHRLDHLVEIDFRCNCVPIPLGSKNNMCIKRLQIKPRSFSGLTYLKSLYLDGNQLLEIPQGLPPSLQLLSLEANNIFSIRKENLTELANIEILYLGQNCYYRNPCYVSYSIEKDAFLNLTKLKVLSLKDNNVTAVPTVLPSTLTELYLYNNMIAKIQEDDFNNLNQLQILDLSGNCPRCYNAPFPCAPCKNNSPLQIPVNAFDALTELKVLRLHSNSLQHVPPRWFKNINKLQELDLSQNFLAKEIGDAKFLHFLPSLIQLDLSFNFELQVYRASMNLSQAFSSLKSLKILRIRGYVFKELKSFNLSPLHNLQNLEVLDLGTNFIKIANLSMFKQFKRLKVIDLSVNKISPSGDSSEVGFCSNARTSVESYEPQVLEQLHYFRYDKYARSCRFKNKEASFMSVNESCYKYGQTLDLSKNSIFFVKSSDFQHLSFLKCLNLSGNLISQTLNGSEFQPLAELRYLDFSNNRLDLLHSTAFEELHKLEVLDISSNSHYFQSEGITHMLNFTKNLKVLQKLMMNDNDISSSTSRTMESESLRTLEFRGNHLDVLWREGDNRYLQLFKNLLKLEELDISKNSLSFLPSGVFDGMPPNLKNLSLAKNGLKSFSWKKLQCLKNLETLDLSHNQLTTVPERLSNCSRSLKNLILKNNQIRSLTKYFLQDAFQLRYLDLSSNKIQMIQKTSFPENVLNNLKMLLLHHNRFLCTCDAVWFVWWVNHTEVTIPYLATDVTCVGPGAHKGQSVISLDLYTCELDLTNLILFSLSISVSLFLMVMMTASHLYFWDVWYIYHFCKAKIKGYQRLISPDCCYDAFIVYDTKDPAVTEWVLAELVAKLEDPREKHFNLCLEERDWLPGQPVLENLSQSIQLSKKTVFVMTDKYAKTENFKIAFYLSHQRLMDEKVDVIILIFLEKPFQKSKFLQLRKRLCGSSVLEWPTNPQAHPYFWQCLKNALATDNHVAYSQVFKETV
The series is described as follows: NF-κB luciferase reporter in 293 HEK cells transfected with human TLR7. Conditions: for human TLR7 response to modified guanosine ribonucleosides: FIG. 18. On the procedure:
FIG. 12 depicts the responsiveness of human TLR7 and human TLR8 to ribonucleosides. It was determined that the response by human PBMC to RNA or RVC was mediated by TLR7 or TLR8 and further that the response could be driven by ribonucleosides only. Human 293 cells were either mock-transfected or transfected with human TLR7 or human TLR8 and monitored for responsiveness to ribonucleosides. The open reading frames of human TLR7 (hTLR7) and human TLR8 (hTLR8) were amplified by PCR from a cDNA library of human PBMC using the following primers pairs: for TLR7, 5′-[…]-3′ (SEQ ID NO:15) and 5′-[…]-3′ (SEQ ID NO:16); and for TLR8, 5′-[…]-3′ (SEQ ID NO:17) and 5′-[…]-3′ (SEQ ID NO:18). The sequence information for primer selection was obtained from Genbank accession numbers AF240467 and AF245703. All full-length TLR fragments were cloned into pGEM-T Easy vector (Promega, Mannheim, Germany), excised with NotI, cloned into the expression vector pcDNA 3.1(−) (Invitrogen, Karlsruhe, Germany) and sequenced. Sequences of the coding region of hTLR7 and hTLR8 correspond to the accession numbers AF240467 (SEQ ID NO:25) and AF245703, respectively (SEQ ID NO:29).
For monitoring transient NF-κB activation, 3×10^6 293 HEK cells (ATCC, VA, USA) were electroporated at 200 volt and 960 μF with 1 μg TLR expression plasmid, 20 ng NF-κB luciferase reporter-plasmid and 14 μg of pcDNA3.1(−) plasmid as carrier in 400 μl RPMI medium supplemented with 25% fetal bovine serum (FCS). Cells were seeded at 10^5 cells per well and after over night culture stimulated with R-848 (denoted in FIG. 12 as X; commercially synthesized by GLSynthesis Inc., Worcester, Mass., USA), RVCs or ribonucleosides for a further 7 hours. Stimulated cells were lysed using reporter lysis buffer (Promega, Mannheim, Germany), and lysate was assayed for luciferase activity using a Berthold luminometer (Wildbad, Germany).

Series [1] deals with human PBMC. The series is described as follows: Human PBMC TNF-α secretion, ELISA. Conditions: for TNF-α max / EC50: human PBMC overnight, including DOTAP; for EC50: read-out: TNF-α EC50. The procedure:
(§1) Human peripheral blood mononuclear cells (PBMCs) were isolated from healthy donors, plated at 3×10^5 cells/well, stimulated in vitro with various test and control immunostimulatory agents for 16 hours, and then analyzed by enzyme-linked immunosorbent assay (ELISA) using matched antibody pairs from BD-Pharmingen for secreted cytokines IL-12 p40 and TNF-α, performed according to the manufacturer's protocol. Also included were certain negative controls, including medium alone and DOTAP (10 μg/200 μl culture well; “Liposomes”) alone. The control immunostimulatory agents included the imidazoquinolone R-848 (2 μg/ml), lipopolysaccharide (LPS; 1 μg/ml), Pam3Cys (5 μg/ml), poly IC (50 μg/ml), and CpG DNA (50 μg/ml). These are reported ligands for TLR7, TLR4, TLR2, TLR3, and TLR9, respectively. Test immunostimulatory agents included the following RNA molecules, each at 50 μg/ml, with and without DOTAP (10 μg total “with Liposomes” and “without Liposomes”, respectively): GUGUUUAC alone; GUAGGCAC alone; GUGUUUAC in combination with GUAGGCAC; GUAGGA; GAAGGCAC; CUAGGCAC; CUCGGCAC; and CCCCCCCC. These RNA oligonucleotides each contained a phosphorothioate linkage between the penultimate and 3′ terminal nucleoside.
The experiments described in the preceding example were repeated with varied concentrations of RNA oligonucleotides in order to assess the dose-response behavior of human PBMCs to G,U-containing RNA oligonucleotides of the invention. A total of 10, 3 or 1 μg RNA was added to 10 μg DOTAP and then added to the 200 μl culture wells. After 16 hours IL-12 p40 and TNF-α ELISAs were performed as described in Example 1.
(§2) In order to investigate the possibility of using cholesteryl ester-modified RNA oligomer in place of RNA oligomer plus cationic lipid, RNA oligomer GUGUGUGU was prepared with (R 1058) and without (R 1006) a 3′ cholesteryl ester modification. These two RNA oligomers with and without DOTAP, were added over a range of concentrations to overnight cultures of human PBMC. Culture supernatants were harvested, and human TNF-α, IL-12 p40, and IFN-α were measured by ELISA using matched antibody pairs from BD-Pharmingen according to the manufacturer's protocol.
(§3) RNA oligomers GUGUGUGU, GUGUGUG, GUGUGU, GUGUG, GUGU, GUG, and GU, with and without DOTAP, were added over a range of concentrations to overnight cultures of human PBMC. Culture supernatants were harvested, and human TNF-α, IL-12 p40, and IFN-α were measured by ELISA using matched antibody pairs from BD-Pharmingen according to the manufacturer's protocol.
(§4) RNA oligomers, with and without DOTAP, were added over a range of concentrations to overnight cultures of human PBMC. Culture supernatants were harvested, and human TNF-α, IL-12 p40, and IFN-α were measured by ELISA using matched antibody pairs from BD-Pharmingen according to the manufacturer's protocol.
(§5) Human PBMC were cultured overnight in the presence of added DNA:RNA conjugate, with and without DOTAP. Culture supernatants were harvested and human TNF-α, IL-6, IL-12 p40, IP-10, and IFN-α were measured by ELISA using matched antibody pairs from BD-Pharmingen according to the manufacturer's protocol.
Human PBMC were cultured overnight in the presence of various concentrations (1, 3, and 10 μg/ml) of tRNA obtained from wheat germ, bovine, yeast, and E. coli sources, added to the culture medium with and without DOTAP. Culture supernatants were harvested and human TNF-α and IL-12 p40 were measured by ELISA using matched antibody pairs from BD-Pharmingen according to the manufacturer's protocol. […] In addition, E. coli tRNA at 3 and 10 μg/ml induced minor amounts of both cytokines even without DOTAP. […]
FIG. 10 depicts the responsiveness of human PBMC to stringent response factor (SRF). SRF is produced by rapidly growing bacteria (in this case Listeria monocytogenes) in rich media until their late log phase. The bacteria were pelleted and resuspended in an equal volume of PBS for 24 h. The mixture is centrifuged to remove the bacteria. […]

Series [2] has as its system human PBMC. The series is described as follows: Human PBMC IL-6 secretion, ELISA. Particulars: Table 4, DNA:RNA conjugates; human PBMC overnight; including DOTAP. On the procedure: as §5
The test system of series [3] is human PBMC. The series is described as follows: Human PBMC IP-10 secretion, ELISA. Particulars: Table 4, DNA:RNA conjugates; human PBMC overnight; including DOTAP. On the procedure:
as §5

The subject of series [4] is human PBMC. The series is described as follows: Human PBMC IL-12 p40 secretion, ELISA. Particulars: Table 2, oligomer length; human PBMC overnight; including DOTAP. On the procedure: as §1
The experiments described in the preceding example were repeated with varied concentrations of RNA oligonucleotides in order to assess the dose-response behavior of human PBMCs to G,U-containing RNA oligonucleotides of the invention. A total of 10, 3 or 1 μg RNA was added to 10 μg DOTAP and then added to the 200 μl culture wells. After 16 hours IL-12 p40 and TNF-α ELISAs were performed as described in Example 1. […]
RNA oligomers GUGUGUGU, GUGUGUG, GUGUGU, GUGUG, GUGU, GUG, and GU, with and without DOTAP, were added over a range of concentrations to overnight cultures of human PBMC. Culture supernatants were harvested, and human TNF-α, IL-12 p40, and IFN-α were measured by ELISA using matched antibody pairs from BD-Pharmingen according to the manufacturer's protocol. […]

The test system of series [5] is human PBMC. The series is described as follows: Human PBMC IFN-α secretion, ELISA. Conditions: Table 2, oligomer length, human PBMC overnight, including DOTAP. The procedure:
as §2, §3, §4
In like manner, an all-phosphodiester 40-mer capable of forming a stem-loop structure and having a base sequence as provided by 5′-[…]-3′ (R 1041; SEQ ID NO:10) was synthesized and tested in overnight culture with human PBMC.

Oligonucleotides are written 5' to 3', each unit as a sugar letter and its base; * is a phosphorothioate linkage, no mark a phosphodiester; rarer units and linkages stand in square brackets, end groups in braces. Plain capitals give the bases only. d = 2'-deoxy (DNA); r = 2'-OH (RNA)

Turning to `Nc1nc2c(ncn2[C@H]2C[C@H](O)[C@@H](CO)O2)c(=O)[nH]1` [deoxy form of guanosine], at human TLR7, the “human TLR7 response to modified guanosine ribonucleosides” value (“human TLR7 response” below) is given as “responded mildly”.

Regarding “G*U*G*U*G*U*G*U*dT*dT*dT*dT*dT*dT (rG*rU*rG*rU*rG*rU*rG*rU*dT*dT*dT*dT*dT*dT) [R 1062]”, in the series on human PBMC [1] (Table 4, DNA:RNA conjugates), the TNF-α max is 80000 pg/mL and the EC50 is 300 nM. In the series with human PBMC [2], this compound had an EC50 of 400 nM and an IL-6 max of 28000 pg/mL. In addition, in the series on human PBMC [3], the response was half-maximal at 100 nM (EC50) and the IP-10 max came to 400 pg/mL.

On to `Nc1nc2c(ncn2[C@@H]2O[C@H](CO)[C@@H](O)[C@H]2O)c(=O)[nH]1` [guanosine], for which the “stimulation of PBMC to produce TNF” value with human PBMC [1] (Example 14, in the absence of vanadate) is on record as “effective”. Moreover, on human TLR7 (FIG. 12, transient transfectants, 7 hours stimulation), the “response of TLR7 transfectants (NF-κB luciferase)” value is “responded”. For the same compound, the “responsiveness of TLR7 to ribonucleosides and mixtures of two” value at human TLR7 (FIG. 13) is “responded best”. The “human TLR7 response” value at human TLR7 is listed as “responsive”.

On to `Nc1nc2c(nc(Br)n2[C@@H]2O[C@H](CO)[C@@H](O)[C@H]2O)c(=O)[nH]1` [8-bromo-guanosine, reference compound], for which, at human TLR7, the “human TLR7 response” value is reported as “responded mildly”.

On to “dT*dT*dT*dT*dT*G*U*G*U*G*U*G*U (dT*dT*dT*dT*dT*rG*rU*rG*rU*rG*rU*rG*rU) [R 1063]”, for which, in the series on human PBMC [1] (Table 4, DNA:RNA conjugates), the TNF-α max came to 60000 pg/mL and the EC50 was determined as 300 nM. For the same compound, in the series on human PBMC [2], a half-maximal effect (EC50) was put at 800 nM and the IL-6 max was 28000 pg/mL. In the series with human PBMC [3], this compound displayed an EC50 of 100 nM and an IP-10 max of 250 pg/mL.

Regarding GUGUGUG [R 1048], in the series on human PBMC [1] (Table 2, oligomer length), the TNF-α max worked out at 30000 pg/mL and the EC50 was 2200 nM. Also, in the series on human PBMC [4], the EC50 was found to be 2600 nM and the “IL-12 p40 max” value stood at 10000 pg/mL. Moreover, the IFN-α max in the series with human PBMC [5] amounted to 2700 pg/mL. Further, the EC50 with human PBMC [5] (read-out: IFN-α EC50) came to 4600 nM.

As for “dG*dG*dG*dG_dG_G*U*G*U*G*U*G*U (dG*dG*dG*dGdGrG*rU*rG*rU*rG*rU*rG*rU) [R 1061]”, in the series with human PBMC [1] (Table 4, DNA:RNA conjugates), the TNF-α max came to 20000 pg/mL and the EC50 was 4300 nM. In the series on human PBMC [2], this compound gave an EC50 above 20000 nM and an IL-6 max of 10000 pg/mL. In addition, in the series with human PBMC [3], the EC50 came out at 1100 nM and the IP-10 max came out at 180 pg/mL.
